Measurements reported in paper PMC3210913 (Psychopharmacology, 2011).

System: serotonin 5-HT1A receptor
Test: in vivo PET displacement of [carbonyl-11C]WAY-100635
Set-up: species or system Macaca fascicularis
Settings: 300 µg/kg i.v. cariprazine, raphe nuclei, ketamine/xylazine anaesthesia

Sequence of serotonin 5-HT1A receptor (UPI0032B04AFA 1-422): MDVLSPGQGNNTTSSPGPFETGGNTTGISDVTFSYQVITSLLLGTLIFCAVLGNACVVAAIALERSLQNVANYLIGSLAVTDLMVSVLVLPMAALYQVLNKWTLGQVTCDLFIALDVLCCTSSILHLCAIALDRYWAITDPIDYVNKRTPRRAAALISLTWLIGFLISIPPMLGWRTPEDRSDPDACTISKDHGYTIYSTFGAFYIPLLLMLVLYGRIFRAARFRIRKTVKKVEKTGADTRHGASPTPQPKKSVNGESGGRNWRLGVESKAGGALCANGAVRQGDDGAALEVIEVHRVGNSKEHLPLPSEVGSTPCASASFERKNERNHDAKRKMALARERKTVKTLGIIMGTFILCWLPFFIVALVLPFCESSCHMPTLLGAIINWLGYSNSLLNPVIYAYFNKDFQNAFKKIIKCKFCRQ

CN(C)C(=O)N[C@H]1CC[C@H](CCN2CCN(c3cccc(Cl)c3Cl)CC2)CC1 [cariprazine]
Receptor occupancy (%) / Cariprazine (μg/kg) / 300: 30%
